{
  "source": "ChEMBL document CHEMBL1141907",
  "about": "“Synthesis and in vitro biological evaluation of a carbon glycoside analogue of morphine-6-glucuronide” (Bioorg Med Chem Lett, 2005)",
  "key": {"[1]": {"test": "Half life in human liver microsomes", "assay_type": "ADME, Microsome"}, "[2]": {"test": "Half life in rat liver microsomes", "assay_type": "ADME, Microsome"}, "[3]": {"test": "Half life in monkey liver microsomes", "assay_type": "ADME, Microsome", "conditions": "cercopithecidae"}, "[4]": {"test": "Inhibition of [3H]U-69593 binding to recombinant human Opioid receptor kappa 1"}, "[5]": {"test": "Inhibition of [3H]DPDPE binding to recombinant human Opioid receptor delta 1"}, "[6]": {"test": "Stimulation of [35S]GTPcS binding against recombinant human opioid receptor mu 1", "assay_type": "functional"}, "[7]": {"species_on_record": "Homo sapiens", "test": "Percentage stimulation of [35S]GTPcS binding compared to relevant control;ND=no detectable activity", "assay_type": "functional"}, "[8]": {"test": "Stimulation of [35S]GTPcS binding against recombinant human opioid receptor delta 1", "assay_type": "functional"}, "[9]": {"test": "Stimulation of [35S]GTPcS binding against recombinant human opioid receptor kappa 1;ND=no detectable activity", "assay_type": "functional"}, "[10]": {"biological_target": "Mu-type opioid receptor (Homo sapiens, UniProt P35372)", "sequence (P35372 whole entry)": "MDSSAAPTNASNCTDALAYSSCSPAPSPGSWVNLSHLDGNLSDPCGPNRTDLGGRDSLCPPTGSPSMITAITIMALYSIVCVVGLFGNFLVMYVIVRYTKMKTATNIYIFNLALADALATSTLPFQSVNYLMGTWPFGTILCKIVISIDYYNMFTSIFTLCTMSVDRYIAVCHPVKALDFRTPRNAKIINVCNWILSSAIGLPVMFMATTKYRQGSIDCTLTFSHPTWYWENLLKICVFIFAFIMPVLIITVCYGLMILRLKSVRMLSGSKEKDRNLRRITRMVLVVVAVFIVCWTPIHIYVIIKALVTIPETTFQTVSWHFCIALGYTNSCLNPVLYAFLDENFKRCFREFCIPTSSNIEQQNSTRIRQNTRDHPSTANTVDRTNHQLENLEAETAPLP", "test": "Inhibition of [3H]-DAMGO binding to recombinant human Opioid receptor mu 1"}, "[11]": {"test": "Stimulation of [35S]GTPcS binding against recombinant human opioid receptor kappa 1", "assay_type": "functional"}, "[12]": {"species_on_record": "Homo sapiens", "test": "Percentage stimulation of [35S]GTPcS binding compared to relevant control; ND=Not detectable activity", "assay_type": "functional"}, "[13]": {"biological_target": "Opioid receptors; mu & delta (Homo sapiens) (UniProt P41143+P35372)", "sequence (P35372 whole entry, looked up)": "as the sequence (P35372 whole entry) above", "sequence (P41143 whole entry, looked up)": "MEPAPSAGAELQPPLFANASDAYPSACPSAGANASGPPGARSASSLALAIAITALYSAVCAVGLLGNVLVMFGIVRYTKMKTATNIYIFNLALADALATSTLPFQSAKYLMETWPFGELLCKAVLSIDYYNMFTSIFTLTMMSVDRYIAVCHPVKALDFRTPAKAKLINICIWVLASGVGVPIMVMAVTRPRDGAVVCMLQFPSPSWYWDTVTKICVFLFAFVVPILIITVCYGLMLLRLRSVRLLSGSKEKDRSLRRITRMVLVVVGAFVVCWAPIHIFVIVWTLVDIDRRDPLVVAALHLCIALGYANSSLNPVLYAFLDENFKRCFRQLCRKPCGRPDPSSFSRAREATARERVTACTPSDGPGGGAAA", "test": "Receptor selectivity ratio for Opioid receptors delta 1 and mu 1", "assay_type": "protein assay"}, "[14]": {"species_on_record": "Homo sapiens", "test": "Percentage stimulation of [35S]-GTPcS binding compared to relevant control", "assay_type": "functional"}},
  "note": "Values joined by “and” are separate entries in the source; they are usually repeats but may differ in a detail not shown here. Equal entries are not always repeated. Active and inactive are the calls of the source. No cut-off for these calls is given here.",
  "data": [
    {"smiles": "COC1[C@H](NC(=O)CC2OC(COCc3ccccc3)C(OCc3ccccc3)C(OCc3ccccc3)C2OCc2ccccc2)CC[C@H]2[C@H]3Cc4ccc(O)cc4[C@@]12CCN3C", "note": "(some centres not stated)", "values": [
      {"measurement": "half-life", "setting": "[1]", "result": 42.9, "unit": "min"},
      {"measurement": "half-life", "setting": "[2]", "result": 19.8, "unit": "min"},
      {"measurement": "half-life", "setting": "[3]", "result": 90, "unit": "min"}
    ]},
    {"smiles": "COC1[C@H](SC2OC(C(=O)O)C(O)C(O)C2O)C=C[C@H]2[C@H]3Cc4ccc(O)cc4[C@@]12CCN3C", "note": "(some centres not stated)", "values": [
      {"measurement": "Ki", "setting": "[4]", "result": 288, "unit": "nM"},
      {"measurement": "Ki", "setting": "[5]", "result": 31.4, "unit": "nM"},
      {"measurement": "EC50", "setting": "[6]", "result": 90.6, "unit": "nM"},
      {"measurement": "Emax", "setting": "[7]", "result": "inactive"},
      {"measurement": "EC50", "setting": "[8]", "result": 50.1, "unit": "nM"},
      {"measurement": "EC50", "setting": "[9]", "result": "Not Active"},
      {"measurement": "Ki", "setting": "[10]", "result": 8.7, "unit": "nM"}
    ]},
    {"smiles": "CN1CC[C@]23c4c5ccc(O)c4O[C@H]2[C@@H](O[C@@H]2O[C@H](C(=O)O)[C@@H](O)[C@H](O)[C@H]2O)C=C[C@H]3[C@H]1C5", "note": "[MORPHINE GLUCURONIDE]", "values": [
      {"measurement": "EC50", "setting": "[11]", "result": "> 10000", "unit": "nM"},
      {"measurement": "Ki", "setting": "[4]", "result": 4060, "unit": "nM"},
      {"measurement": "Ki", "setting": "[5]", "result": 170, "unit": "nM"},
      {"measurement": "EC50", "setting": "[6]", "result": 72.3, "unit": "nM"},
      {"measurement": "Emax", "setting": "[12]", "result": "inactive"},
      {"measurement": "EC50", "setting": "[8]", "result": 190, "unit": "nM"},
      {"measurement": "Ki", "setting": "[10]", "result": 12.9, "unit": "nM"}
    ]},
    {"smiles": "COC1[C@H](NC(=O)CC2OC(COCc3ccccc3)C(OCc3ccccc3)C(OCc3ccccc3)C2OCc2ccccc2)C=C[C@H]2[C@H]3Cc4ccc(O)cc4[C@@]12CCN3C", "note": "(some centres not stated)", "values": [
      {"measurement": "EC50", "setting": "[11]", "result": 1.8, "unit": "nM"},
      {"measurement": "Ki", "setting": "[4]", "result": 15.8, "unit": "nM"},
      {"measurement": "Ki", "setting": "[5]", "result": 7.2, "unit": "nM"},
      {"measurement": "EC50", "setting": "[6]", "result": 623, "unit": "nM"},
      {"measurement": "half-life", "setting": "[2]", "result": 24.6, "unit": "min"},
      {"measurement": "EC50", "setting": "[8]", "result": 2.2, "unit": "nM"},
      {"measurement": "half-life", "setting": "[3]", "result": 30.7, "unit": "min"},
      {"measurement": "Ki", "setting": "[10]", "result": 0.5, "unit": "nM"}
    ]},
    {"smiles": "COC1[C@H](SC2OC(CO)C(O)C(O)C2O)C=C[C@H]2[C@H]3Cc4ccc(O)cc4[C@@]12CCN3C", "note": "(some centres not stated)", "values": [
      {"measurement": "Selectivity", "setting": "[13]", "result": "10.4 and 25.4"},
      {"measurement": "EC50", "setting": "[11]", "result": 321, "unit": "nM"},
      {"measurement": "Ki", "setting": "[4]", "result": 136, "unit": "nM"},
      {"measurement": "Ki", "setting": "[5]", "result": 56.2, "unit": "nM"},
      {"measurement": "EC50", "setting": "[6]", "result": 91.5, "unit": "nM"},
      {"measurement": "Emax", "setting": "[14]", "result": "42.5% and 64.5% and 51.5%"},
      {"measurement": "EC50", "setting": "[8]", "result": 192, "unit": "nM"}
    ]},
    {"smiles": "COC1[C@H](NC(=O)CC2OC(CO)C(O)C(O)C2O)C=C[C@H]2[C@H]3Cc4ccc(O)cc4[C@@]12CCN3C", "note": "(some centres not stated) [DEPROTECTED COGENER OF M6G]", "values": [
      {"measurement": "Selectivity", "setting": "[13]", "result": "76.7 and 166"},
      {"measurement": "Ki", "setting": "[5]", "result": 266, "unit": "nM"},
      {"measurement": "EC50", "setting": "[6]", "result": 37.2, "unit": "nM"},
      {"measurement": "EC50", "setting": "[8]", "result": 335, "unit": "nM"},
      {"measurement": "Ki", "setting": "[10]", "result": 3.5, "unit": "nM"}
    ]}
  ]
}
